In ChEMBL document CHEMBL4507291 (2021):

Assays:
[1] = biological target: Leucine-rich repeat serine/threonine-protein kinase 2 (Homo sapiens, UniProt Q5S007); experiment: Cellular assay monitoring dephosphorylation of pSer935 LRRK2
[2] = biological target: Sigma non-opioid intracellular receptor 1 (Homo sapiens, UniProt Q99720); experiment: GPCRScan assay: inhibition of Sigma 1; design: radioligand conc. used [nm] 4.0 – 5.0, parental cells HEKT
[3] = biological target: Ephrin type-A receptor 2 (Homo sapiens) (UniProt P29317); experiment: EPHA2 Kinase screen; conditions: Compound concentration 1.0 uM
Chain of Ephrin type-A receptor 2 (Homo sapiens) (P29317 whole entry): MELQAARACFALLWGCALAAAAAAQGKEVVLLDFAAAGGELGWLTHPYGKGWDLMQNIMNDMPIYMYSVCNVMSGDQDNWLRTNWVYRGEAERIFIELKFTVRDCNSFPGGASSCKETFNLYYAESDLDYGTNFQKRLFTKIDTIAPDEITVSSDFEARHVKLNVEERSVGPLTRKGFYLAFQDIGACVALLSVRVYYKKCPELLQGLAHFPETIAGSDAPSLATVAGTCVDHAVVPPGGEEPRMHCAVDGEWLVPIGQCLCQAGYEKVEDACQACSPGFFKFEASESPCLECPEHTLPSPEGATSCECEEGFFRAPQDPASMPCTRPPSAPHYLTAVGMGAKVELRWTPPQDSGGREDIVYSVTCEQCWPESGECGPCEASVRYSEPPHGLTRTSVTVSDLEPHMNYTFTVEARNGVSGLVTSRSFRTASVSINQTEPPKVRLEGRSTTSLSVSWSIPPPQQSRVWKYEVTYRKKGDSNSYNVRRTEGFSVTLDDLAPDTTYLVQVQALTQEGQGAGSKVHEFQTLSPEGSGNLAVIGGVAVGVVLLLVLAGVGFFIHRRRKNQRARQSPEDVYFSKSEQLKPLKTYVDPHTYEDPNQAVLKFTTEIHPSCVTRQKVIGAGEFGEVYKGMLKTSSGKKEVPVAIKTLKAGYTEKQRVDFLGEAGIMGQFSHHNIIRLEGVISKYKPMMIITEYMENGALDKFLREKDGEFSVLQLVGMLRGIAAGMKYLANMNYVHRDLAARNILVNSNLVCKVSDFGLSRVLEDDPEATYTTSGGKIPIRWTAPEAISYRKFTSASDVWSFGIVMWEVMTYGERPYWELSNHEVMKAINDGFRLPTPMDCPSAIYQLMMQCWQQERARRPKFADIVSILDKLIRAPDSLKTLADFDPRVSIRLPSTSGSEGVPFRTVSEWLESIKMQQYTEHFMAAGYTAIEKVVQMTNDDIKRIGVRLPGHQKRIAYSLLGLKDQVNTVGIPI

[4] = biological target: Serine/threonine-protein kinase pim-1 (Homo sapiens) (UniProt P11309); experiment: PIM1 Kinase screen; conditions: Compound concentration 1.0 uM
Chain of Serine/threonine-protein kinase pim-1 (Homo sapiens) (P11309 whole entry, looked up): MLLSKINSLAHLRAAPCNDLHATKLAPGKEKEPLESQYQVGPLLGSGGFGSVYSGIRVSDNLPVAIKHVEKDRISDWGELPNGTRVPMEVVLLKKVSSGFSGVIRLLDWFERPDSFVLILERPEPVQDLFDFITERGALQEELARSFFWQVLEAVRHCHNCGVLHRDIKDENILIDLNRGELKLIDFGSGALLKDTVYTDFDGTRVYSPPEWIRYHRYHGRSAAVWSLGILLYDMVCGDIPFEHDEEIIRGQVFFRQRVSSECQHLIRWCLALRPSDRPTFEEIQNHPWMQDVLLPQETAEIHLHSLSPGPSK

[5] = biological target: Mitogen-activated protein kinase kinase kinase 9 (Homo sapiens) (UniProt P80192); experiment: MAP3K9 (MLK1) Kinase screen; conditions: Compound concentration 1.0 uM
[6] = biological target: Serine/threonine-protein kinase MARK1 (Homo sapiens) (UniProt Q9P0L2); experiment: MARK1 (MARK) Kinase screen; conditions: Compound concentration 1.0 uM
Chain of Serine/threonine-protein kinase MARK1 (Homo sapiens) (Q9P0L2 whole entry, looked up): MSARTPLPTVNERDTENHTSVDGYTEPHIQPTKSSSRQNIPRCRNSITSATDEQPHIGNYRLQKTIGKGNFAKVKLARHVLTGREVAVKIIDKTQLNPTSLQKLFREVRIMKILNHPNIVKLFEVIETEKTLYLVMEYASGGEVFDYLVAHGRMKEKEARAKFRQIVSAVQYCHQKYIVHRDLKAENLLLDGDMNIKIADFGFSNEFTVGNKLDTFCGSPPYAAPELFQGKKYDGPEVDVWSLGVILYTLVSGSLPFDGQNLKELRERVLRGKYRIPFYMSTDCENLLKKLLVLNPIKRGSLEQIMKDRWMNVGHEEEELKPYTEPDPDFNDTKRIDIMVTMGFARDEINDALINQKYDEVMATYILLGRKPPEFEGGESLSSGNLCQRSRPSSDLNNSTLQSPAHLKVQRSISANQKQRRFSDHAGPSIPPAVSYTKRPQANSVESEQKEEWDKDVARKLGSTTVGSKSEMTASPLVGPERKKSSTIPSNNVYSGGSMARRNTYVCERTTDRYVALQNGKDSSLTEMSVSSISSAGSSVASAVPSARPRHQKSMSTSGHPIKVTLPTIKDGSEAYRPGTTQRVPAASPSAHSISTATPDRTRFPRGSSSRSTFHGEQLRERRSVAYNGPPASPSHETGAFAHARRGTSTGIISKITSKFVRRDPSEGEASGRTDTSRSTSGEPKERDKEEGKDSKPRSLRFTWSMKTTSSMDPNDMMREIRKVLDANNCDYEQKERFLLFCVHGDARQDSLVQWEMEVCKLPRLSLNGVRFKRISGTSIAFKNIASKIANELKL

[7] = biological target: T1, Ephrin type-B receptor 3 (Homo sapiens) (UniProt P54753); experiment: EPHB3 Kinase screen; conditions: Compound concentration 1.0 uM
T1 sequence (whole entry): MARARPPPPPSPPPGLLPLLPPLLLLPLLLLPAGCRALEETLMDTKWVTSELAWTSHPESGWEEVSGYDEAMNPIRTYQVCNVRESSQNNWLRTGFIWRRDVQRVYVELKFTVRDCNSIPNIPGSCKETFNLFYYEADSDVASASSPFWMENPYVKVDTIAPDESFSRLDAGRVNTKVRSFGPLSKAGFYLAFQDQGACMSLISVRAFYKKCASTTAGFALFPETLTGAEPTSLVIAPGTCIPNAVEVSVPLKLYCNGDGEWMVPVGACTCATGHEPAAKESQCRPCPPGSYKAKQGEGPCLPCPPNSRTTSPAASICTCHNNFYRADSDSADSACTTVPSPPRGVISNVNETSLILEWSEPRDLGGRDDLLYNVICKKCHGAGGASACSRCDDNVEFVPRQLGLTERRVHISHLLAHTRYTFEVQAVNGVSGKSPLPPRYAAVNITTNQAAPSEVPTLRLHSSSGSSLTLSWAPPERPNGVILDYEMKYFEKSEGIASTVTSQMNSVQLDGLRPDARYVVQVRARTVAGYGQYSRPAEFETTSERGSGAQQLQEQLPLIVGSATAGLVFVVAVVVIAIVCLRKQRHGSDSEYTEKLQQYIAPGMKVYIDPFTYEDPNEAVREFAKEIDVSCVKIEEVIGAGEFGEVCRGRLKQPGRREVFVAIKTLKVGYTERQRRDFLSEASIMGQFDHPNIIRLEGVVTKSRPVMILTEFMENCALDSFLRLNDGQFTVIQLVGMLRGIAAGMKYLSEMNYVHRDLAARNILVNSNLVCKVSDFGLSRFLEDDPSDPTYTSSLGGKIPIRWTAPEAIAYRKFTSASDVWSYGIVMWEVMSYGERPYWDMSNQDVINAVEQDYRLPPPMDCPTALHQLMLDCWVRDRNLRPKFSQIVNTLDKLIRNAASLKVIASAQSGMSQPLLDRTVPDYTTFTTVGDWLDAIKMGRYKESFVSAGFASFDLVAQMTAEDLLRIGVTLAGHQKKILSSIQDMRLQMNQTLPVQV

[8] = biological target: T2, Serine/threonine-protein kinase TAO3 (Homo sapiens) (UniProt Q9H2K8); experiment: TAOK3 (JIK) Kinase screen; conditions: Compound concentration 1.0 uM
T2 sequence (whole entry): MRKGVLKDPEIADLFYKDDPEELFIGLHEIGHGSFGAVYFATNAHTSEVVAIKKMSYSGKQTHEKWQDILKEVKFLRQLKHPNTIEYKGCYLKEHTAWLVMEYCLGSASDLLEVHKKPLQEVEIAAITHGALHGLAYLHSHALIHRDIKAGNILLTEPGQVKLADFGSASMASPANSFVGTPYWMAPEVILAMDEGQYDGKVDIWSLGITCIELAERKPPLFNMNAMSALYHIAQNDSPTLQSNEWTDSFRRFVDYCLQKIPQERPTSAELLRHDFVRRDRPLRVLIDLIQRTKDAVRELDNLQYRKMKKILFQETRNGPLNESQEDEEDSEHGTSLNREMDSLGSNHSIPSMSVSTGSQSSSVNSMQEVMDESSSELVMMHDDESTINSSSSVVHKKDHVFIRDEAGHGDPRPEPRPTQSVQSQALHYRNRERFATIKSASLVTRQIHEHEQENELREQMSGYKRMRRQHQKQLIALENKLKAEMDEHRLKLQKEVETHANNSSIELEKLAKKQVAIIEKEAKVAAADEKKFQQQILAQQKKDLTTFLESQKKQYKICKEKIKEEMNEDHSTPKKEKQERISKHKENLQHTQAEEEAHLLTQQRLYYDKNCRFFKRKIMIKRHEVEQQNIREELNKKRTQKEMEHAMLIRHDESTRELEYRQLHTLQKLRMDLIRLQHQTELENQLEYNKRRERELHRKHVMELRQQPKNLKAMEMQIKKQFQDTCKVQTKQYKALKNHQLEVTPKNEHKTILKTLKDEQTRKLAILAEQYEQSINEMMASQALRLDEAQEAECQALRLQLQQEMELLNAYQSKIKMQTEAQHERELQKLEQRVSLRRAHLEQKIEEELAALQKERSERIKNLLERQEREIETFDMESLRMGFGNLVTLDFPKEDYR

[9] = biological target: T3, Myotonin-protein kinase (Homo sapiens) (UniProt Q09013); experiment: DMPK Kinase screen; conditions: Compound concentration 1.0 uM
T3 sequence (whole entry): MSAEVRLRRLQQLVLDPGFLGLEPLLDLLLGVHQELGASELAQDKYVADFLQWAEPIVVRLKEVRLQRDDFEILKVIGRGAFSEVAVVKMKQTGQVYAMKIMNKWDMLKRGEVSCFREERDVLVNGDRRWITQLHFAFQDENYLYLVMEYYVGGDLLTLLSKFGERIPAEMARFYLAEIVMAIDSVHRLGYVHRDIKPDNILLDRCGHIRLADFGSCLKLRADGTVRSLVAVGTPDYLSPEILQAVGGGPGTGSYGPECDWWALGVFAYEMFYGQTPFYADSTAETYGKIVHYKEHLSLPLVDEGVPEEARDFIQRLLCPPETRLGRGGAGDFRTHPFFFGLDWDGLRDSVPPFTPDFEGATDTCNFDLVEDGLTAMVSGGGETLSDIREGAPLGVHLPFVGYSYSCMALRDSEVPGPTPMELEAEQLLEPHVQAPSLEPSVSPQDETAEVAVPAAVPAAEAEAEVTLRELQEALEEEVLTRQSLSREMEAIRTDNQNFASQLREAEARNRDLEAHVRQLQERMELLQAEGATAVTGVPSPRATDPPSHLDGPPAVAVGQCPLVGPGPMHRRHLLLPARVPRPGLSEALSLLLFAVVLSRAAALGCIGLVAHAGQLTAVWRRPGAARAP

[10] = biological target: Serine/threonine-protein kinase Nek6 (Homo sapiens) (UniProt Q9HC98); experiment: NEK6 Kinase screen; conditions: Compound concentration 1.0 uM
Chain of Serine/threonine-protein kinase Nek6 (Homo sapiens) (Q9HC98 whole entry): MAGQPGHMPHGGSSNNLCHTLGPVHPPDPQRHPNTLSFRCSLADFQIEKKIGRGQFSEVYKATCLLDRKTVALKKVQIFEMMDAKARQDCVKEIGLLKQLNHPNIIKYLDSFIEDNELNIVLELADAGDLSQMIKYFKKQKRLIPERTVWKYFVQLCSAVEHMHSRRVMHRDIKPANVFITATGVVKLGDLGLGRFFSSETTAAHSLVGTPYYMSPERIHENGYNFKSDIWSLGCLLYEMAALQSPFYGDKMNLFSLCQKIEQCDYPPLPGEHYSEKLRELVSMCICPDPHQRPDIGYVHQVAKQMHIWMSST

[11] = biological target: Rho-associated protein kinase 2 (Homo sapiens) (UniProt O75116); experiment: ROCK2 Kinase screen; conditions: Compound concentration 1.0 uM
Chain of Rho-associated protein kinase 2 (Homo sapiens) (O75116 whole entry, looked up): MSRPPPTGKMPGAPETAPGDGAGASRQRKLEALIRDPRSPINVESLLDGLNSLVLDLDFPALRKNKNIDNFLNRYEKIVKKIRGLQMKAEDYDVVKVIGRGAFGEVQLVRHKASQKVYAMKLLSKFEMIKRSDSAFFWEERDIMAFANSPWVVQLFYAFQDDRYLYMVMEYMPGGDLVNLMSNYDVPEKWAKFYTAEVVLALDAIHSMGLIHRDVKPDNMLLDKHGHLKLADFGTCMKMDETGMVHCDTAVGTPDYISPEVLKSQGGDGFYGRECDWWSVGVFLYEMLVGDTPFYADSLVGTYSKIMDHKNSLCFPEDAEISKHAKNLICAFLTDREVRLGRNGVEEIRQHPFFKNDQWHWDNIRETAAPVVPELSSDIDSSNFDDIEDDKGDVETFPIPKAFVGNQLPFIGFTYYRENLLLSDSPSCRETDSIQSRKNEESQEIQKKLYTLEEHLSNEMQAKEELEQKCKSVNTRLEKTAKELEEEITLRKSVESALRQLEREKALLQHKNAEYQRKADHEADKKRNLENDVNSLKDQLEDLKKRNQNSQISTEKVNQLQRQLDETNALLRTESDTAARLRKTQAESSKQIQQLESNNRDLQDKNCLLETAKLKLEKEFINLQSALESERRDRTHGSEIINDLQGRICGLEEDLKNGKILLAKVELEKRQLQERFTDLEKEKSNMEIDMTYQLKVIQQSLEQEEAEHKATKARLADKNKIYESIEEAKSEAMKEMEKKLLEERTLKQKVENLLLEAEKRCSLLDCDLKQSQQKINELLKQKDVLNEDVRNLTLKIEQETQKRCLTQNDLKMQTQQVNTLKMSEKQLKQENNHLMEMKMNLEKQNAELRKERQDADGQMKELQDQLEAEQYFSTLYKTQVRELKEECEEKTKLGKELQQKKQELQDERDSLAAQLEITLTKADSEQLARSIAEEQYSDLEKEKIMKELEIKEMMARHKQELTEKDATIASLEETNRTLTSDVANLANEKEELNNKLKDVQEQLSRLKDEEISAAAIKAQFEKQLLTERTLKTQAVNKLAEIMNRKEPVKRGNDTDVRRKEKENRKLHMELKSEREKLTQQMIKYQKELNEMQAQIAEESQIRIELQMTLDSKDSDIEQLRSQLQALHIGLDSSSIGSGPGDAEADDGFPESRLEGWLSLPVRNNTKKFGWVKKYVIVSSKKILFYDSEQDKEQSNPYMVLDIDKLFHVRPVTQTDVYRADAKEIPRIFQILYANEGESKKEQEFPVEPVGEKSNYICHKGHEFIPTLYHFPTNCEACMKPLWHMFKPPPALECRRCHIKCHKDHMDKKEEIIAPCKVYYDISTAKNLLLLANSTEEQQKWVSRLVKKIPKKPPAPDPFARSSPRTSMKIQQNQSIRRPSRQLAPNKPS

Chain of Sigma non-opioid intracellular receptor 1 (Q99720 whole entry): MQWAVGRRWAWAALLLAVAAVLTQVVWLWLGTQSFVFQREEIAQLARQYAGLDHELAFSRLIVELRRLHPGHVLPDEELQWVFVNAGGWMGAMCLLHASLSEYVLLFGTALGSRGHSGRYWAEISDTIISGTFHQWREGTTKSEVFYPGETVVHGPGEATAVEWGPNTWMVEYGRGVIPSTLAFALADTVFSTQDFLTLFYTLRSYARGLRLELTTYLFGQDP

Row | SMILES | IC50 [1] | Ki [2] | inhibition [3] | inhibition [4] | inhibition [5] | inhibition [6] | inhibition [7] | inhibition [8] | inhibition [9] | inhibition [10] | inhibition [11]
1 | C[C@@H]1CN(c2cc(-c3nn(C)c4ccc(OC5(C)CC5)cc34)ncn2)C[C@H](C)O1 [MLi-2-NC] | 5440 nM (not active) | 1590 nM | – | – | – | – | – | – | – | – | –
2 | C[C@@H]1CN(c2cc(-c3n[nH]c4ccc(OC5(C)CC5)cc34)ncn2)C[C@H](C)O1 [MLi-2] | – | – | -4.26% | -2.73% | 27.3% | 8.35% | 9.87% | 0.385% | 5.71% | 4.75% | 10.2%
